This is an account of results in ChEMBL document CHEMBL1146215, “Computer-aided rational drug design: a novel agent (SR13668) designed to mimic the unique anticancer mechanisms of dietary indole-3-carbinol to block Akt signaling” (J Med Chem, 2007).

The source made the active and inactive calls. No cut-off for these calls is given here. Bounds are passed on as bounds.

For series [1], the system named is MCF7. Briefly: Antitumor activity against MCF7 cells. Format: functional, cell-based. To be noted: Homo sapiens.
Series [2] deals with MCF7. Briefly: Inhibition of tumor growth in MCF7 cells xenografted BALB/c mouse at 10 mg/kg/day, ip after 30 days. Format: functional, Homo sapiens. To be noted: 720 h, route intraperitoneal.
Series [3] has as its system MCF7. Briefly: Inhibition of tumor growth in MCF7 cells xenografted BALB/c mouse at 10 mg/kg/day, po after 30 days. Format: functional, Homo sapiens. To be noted: MCF7, 720 h.
Series [4] deals with Glycogen synthase kinase-3 beta (Homo sapiens) (UniProt P49841). Briefly: Inhibition of GSK3-beta activity in PC3 cells. Format: cell-based. To be noted: PC-3.
Chain of Glycogen synthase kinase-3 beta (Homo sapiens) (P49841 whole entry, looked up): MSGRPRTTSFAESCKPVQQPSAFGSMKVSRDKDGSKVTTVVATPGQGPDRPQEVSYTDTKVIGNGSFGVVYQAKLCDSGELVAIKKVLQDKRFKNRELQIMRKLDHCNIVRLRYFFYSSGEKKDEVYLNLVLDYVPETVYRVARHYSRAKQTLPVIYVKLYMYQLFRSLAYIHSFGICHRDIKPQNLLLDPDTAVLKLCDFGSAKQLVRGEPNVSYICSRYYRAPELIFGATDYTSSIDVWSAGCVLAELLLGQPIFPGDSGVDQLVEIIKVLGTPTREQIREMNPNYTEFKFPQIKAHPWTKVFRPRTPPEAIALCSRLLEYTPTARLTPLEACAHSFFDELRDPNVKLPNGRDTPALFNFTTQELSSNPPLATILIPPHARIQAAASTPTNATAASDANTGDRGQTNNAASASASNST
For series [5], the system named is PC-3. Briefly: Inhibition of serum-stimulated AKT phosphorylation in PC3 cells. Format: cell-based. To be noted: Homo sapiens.
For a further series, the system named is MDA-MB-468. Description: Inhibition of serum-stimulated AKT phosphorylation in MDA-MB-468 cells. Format: cell-based. Conditions: Homo sapiens.
Series [6] relates to Mus musculus. Description: Toxicity assessed as effect on fasting glucose level in mouse at 500 mg/kg/day, po after 14 days. Format: organism-based. To be noted: in vivo, 336 h. Also noted: route oral.
The subject of series [7] is Mus musculus. Description: Toxicity assessed as effect on body weight of mouse at 500 mg/kg/day, po after 14 days. Set-up: route oral. Format: organism-based. To be noted: in vivo, 336 h.
In series [8] the target is RAC-alpha serine/threonine-protein kinase (Homo sapiens) (UniProt P31749). Description: Inhibition of Akt1.
Chain of RAC-alpha serine/threonine-protein kinase (Homo sapiens) (P31749 whole entry): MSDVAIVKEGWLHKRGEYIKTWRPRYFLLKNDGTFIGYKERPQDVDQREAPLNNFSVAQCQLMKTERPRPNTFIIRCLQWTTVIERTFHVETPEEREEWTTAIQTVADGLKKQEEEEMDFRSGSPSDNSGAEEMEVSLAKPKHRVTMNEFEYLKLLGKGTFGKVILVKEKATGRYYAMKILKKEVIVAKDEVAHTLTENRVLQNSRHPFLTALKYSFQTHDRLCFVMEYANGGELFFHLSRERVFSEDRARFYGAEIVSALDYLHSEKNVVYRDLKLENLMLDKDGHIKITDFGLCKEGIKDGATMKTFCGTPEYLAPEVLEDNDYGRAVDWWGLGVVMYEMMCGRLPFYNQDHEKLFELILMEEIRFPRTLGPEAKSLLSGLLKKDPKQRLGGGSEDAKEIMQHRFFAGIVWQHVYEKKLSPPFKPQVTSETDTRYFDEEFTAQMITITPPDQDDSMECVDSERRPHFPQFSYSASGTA
Series [9] has as its target RAC-gamma serine/threonine-protein kinase (Homo sapiens) (UniProt Q9Y243). Description: Inhibition of Akt3.
For series [10], the target named is RAC-beta serine/threonine-protein kinase (Homo sapiens) (UniProt P31751). Description: Inhibition of Akt2.
Chain of RAC-beta serine/threonine-protein kinase (Homo sapiens) (P31751 whole entry): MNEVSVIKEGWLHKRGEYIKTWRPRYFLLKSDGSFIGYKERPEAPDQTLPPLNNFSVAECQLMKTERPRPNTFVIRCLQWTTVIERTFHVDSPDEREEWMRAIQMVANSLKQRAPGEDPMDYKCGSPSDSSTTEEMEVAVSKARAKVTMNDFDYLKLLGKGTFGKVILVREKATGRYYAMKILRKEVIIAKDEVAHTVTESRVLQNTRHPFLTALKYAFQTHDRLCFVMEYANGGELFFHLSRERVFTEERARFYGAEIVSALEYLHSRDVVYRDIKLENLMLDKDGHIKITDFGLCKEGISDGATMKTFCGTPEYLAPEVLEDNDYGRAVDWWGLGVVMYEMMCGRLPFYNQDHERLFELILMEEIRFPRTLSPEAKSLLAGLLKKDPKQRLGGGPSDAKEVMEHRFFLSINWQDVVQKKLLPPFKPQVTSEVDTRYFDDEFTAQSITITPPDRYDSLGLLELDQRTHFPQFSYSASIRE
A further series is filed under the species Homo sapiens. Description: Inhibition of PI3K.
Series [11] concerns the target T1, 3-phosphoinositide-dependent protein kinase 1 (Homo sapiens) (UniProt O15530).
T1 sequence (whole entry): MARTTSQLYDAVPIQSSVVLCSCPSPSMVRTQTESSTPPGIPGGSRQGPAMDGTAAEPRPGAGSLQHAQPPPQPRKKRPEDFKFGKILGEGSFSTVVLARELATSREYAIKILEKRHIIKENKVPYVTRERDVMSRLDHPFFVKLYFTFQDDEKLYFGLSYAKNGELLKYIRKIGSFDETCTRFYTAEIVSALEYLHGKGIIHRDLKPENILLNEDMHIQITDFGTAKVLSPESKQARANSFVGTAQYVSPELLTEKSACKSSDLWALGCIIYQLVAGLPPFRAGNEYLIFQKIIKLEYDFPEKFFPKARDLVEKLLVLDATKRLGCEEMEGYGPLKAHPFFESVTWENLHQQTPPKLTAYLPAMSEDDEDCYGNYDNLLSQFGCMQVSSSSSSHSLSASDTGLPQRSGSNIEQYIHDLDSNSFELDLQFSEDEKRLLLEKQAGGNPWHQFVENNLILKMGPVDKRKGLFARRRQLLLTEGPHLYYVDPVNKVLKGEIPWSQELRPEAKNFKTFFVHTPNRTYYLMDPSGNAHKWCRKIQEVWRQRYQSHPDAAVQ
Description: Inhibition of PDK1.

For series [12], the system named is Rattus norvegicus. Description: Toxicity in Sprague-Dawley rat at 25 mg/kg/day, po after 14 days. Format: organism-based. Set-up: route oral. To be noted: in vivo, 336 h.
In series [13] the test system is Rattus norvegicus. Briefly: Toxicity in Sprague-Dawley rat at 75 mg/kg/day, po after 14 days. Also noted: route oral. To be noted: in vivo, 336 h. Format: organism-based.
Series [14] concerns Rattus norvegicus. Briefly: Toxicity in Sprague-Dawley rat at 200 mg/kg/day, po after 14 days. Format: organism-based. Also noted: route oral. Conditions: in vivo, 336 h.
For series [15], the system named is Rattus norvegicus. Description: Toxicity in Sprague-Dawley rat at 600 mg/kg/day, po after 14 days. Format: organism-based. Conditions: in vivo, 336 h. Also noted: route oral.
Series [16] is filed under the species Mus musculus. Briefly: Genotoxicity by mouse micronucleus test. Format: toxicity, organism-based. Conditions: in vivo.
The next series relates to MDA-MB-231. Description: Inhibition of tumor growth in MDA-MB-231 cells xenografted po dosed mouse. To be noted: Homo sapiens. Format: functional, organism-based.
Series [17] concerns PC-3. Description: Inhibition of tumor growth in PC3 cells xenografted po dosed mouse. Format: functional, organism-based. To be noted: Homo sapiens.
The next series deals with SK-OV-3. Briefly: Inhibition of tumor growth in SKOV3 cells xenografted po dosed mouse. Format: functional, organism-based. To be noted: Homo sapiens.

Chain of RAC-gamma serine/threonine-protein kinase (Homo sapiens) (Q9Y243 whole entry): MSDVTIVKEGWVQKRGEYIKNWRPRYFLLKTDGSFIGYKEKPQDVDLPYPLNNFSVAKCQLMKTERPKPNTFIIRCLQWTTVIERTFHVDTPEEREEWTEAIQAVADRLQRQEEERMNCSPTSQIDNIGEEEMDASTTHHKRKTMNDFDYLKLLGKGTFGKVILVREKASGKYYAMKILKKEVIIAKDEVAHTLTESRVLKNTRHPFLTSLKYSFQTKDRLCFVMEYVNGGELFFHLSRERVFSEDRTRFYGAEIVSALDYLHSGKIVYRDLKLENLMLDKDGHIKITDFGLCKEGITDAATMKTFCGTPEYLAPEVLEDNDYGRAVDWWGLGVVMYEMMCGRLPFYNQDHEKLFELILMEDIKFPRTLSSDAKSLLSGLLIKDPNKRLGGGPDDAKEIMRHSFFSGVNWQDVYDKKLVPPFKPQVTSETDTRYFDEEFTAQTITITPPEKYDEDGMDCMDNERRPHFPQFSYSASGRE

For orientation: IC50 means the concentration at which inhibition is half-maximal. On to `CN(C)C(=O)c1ccc2[nH]cc(Cc3c[nH]c4ccc(C(=O)N(C)C)cc34)c2c1`, for which the concentration for half-maximal inhibition (IC50) with MCF7 [1] is > 10000 nM.

In the series on MCF7 [1], `CCOC(=O)Oc1c2[nH]c3ccc(C(=O)OCC)cc3c2cc2c1[nH]c1ccc(C(=O)OCC)cc12` came in with an IC50 of 110 nM.

For the molecule `CC(C)(c1c[nH]c2ccccc12)c1c[nH]c2ccccc12`, the 50% inhibitory concentration (IC50) in the series on MCF7 [1] is > 10000 nM.

Turning to `O=C(O)c1ccc2[nH]cc(Cc3c[nH]c4ccc(C(=O)O)cc34)c2c1`, in the series on MCF7 [1], the IC50 was > 10000 nM.

Molecule `CCOC(=O)c1ccc2[nH]c3c(C(F)(F)C(F)(F)C(F)(F)F)c4[nH]c5ccc(C(=O)OCC)cc5c4cc3c2c1` yielded an IC50 in the series on MCF7 [1] of 90 nM.

What is called inhibition in vivo is the relative decrease from the control value, in per cent. For `CCOC(=O)Oc1c2[nH]c3ccccc3c2cc2c1[nH]c1ccccc12`, the 50% inhibitory concentration (IC50) in the series with MCF7 [1] came to 80 nM. The results for the inhibition in vivo at 10 mg/kg/day in the series on MCF7 [2] and in the series on MCF7 [3] were 43% and 26%, respectively.

Regarding `CS(=O)(=O)c1ccc2[nH]cc(Cc3c[nH]c4ccc(S(C)(=O)=O)cc34)c2c1`, the concentration for half-maximal inhibition (IC50) with MCF7 [1] is > 10000 nM.

In the series with MCF7 [1], `C=C(c1c[nH]c2ccccc12)c1c[nH]c2ccccc12` yielded a half-inhibitory concentration (IC50) of 3300 nM.

`CCOC(=O)c1ccc2[nH]cc(Cc3c[nH]c4ccc(C(=O)OCC)cc34)c2c1` registered an IC50 in the series on MCF7 [1] of 1750 nM.

`c1ccc2c(Cc3c[nH]c4ccccc34)c[nH]c2c1` [ARUNDINE] yielded an IC50 in the series on MCF7 [1] of 5500 nM.

Consider `c1ccc2[nH]c(Cc3cc4ccccc4[nH]3)cc2c1`, for which the concentration for half-maximal inhibition (IC50) in the series with MCF7 [1] worked out at 940 nM.

The molecule `CCOC(=O)c1ccc2[nH]c3c(OC)c4[nH]c5ccc(C(=O)OCC)cc5c4cc3c2c1` [SR-13668] displayed an IC50 in the series on MCF7 [1] of 190 nM. Besides, the result (in series [4]; with PC-3 [5]; in the series with MDA-MB-468; in the series with MDA-MB-231; in the series on PC-3 [17]; in the series with SK-OV-3) was Active. Further, the Activity result with Mus musculus [6] was “Active”; in the series with Mus musculus [7] it was “Active”; with Rattus norvegicus [12], “Non-toxic”; with Rattus norvegicus [13], “Non-toxic”; with Rattus norvegicus [14], “Non-toxic”; in the series with Rattus norvegicus [15] it was “Non-toxic”. The Activity result in the series listed under Mus musculus [16] is listed as “Non-toxic”. In addition, the result (in series [8]; in [9]; in series [10]; in the series listed under Homo sapiens; in series [11]) was inactive.

As for `c1cc(-c2c[nH]c3ccccc23)cc(-c2c[nH]c3ccccc23)c1`, in the series on MCF7 [1], the 50% inhibitory concentration (IC50) was > 10000 nM.
